Test [1] deals with corpus cavernosum of the penis. The following applies: dog model; cited from earlier work.
Test [2] relates to hypoxic pulmonary vasoconstriction in anaesthetized Beagle dogs. The experiment in a line: Hypoxic pulmonary vasoconstriction in anaesthetised dogs, intravenous administration. Format: in vivo, dog. On the procedure: The anaesthetized dog is the model of choice in which to study the effect of drugs, owing to the similarity between canine and human haemodynamics, and additionally, to ensure cinsistency between pharmacological and toxicological species.
Beagle dogs of either sex were anaesthetized with intravenous sodium pentobarbitone (Sagatal [trademark], 30 to 45 mg/kg) and anesthesia maintained with an infusion of Sagatal (6 mg/kg/h) into the right femoral vein. The dogs were initially intubated via the mouth, and then via a tracheotomy, and artificially respired using an Ugo Basille dog respirator. […] Respiratory gases (inspired O2 and end tidal CO2) were monitored by a Normocap 200 (trademark) respiratory gas monitor (Datex Instrumentarium Corp.). The depth of anesthesia was assessed by carefully monitoring arterial blood pressure and heart rate. […] Pulmonary artery pressure (PAP) and pulmonary artery wedge pressure were recorded from this catheter. This catheter was also connected to a cardiac index computer (Gould Instruments) and cardiac output determined by thermodilution following rapid injection of 5 ml saline at room temperature. […] Lead II ECG was recorded from 2 stainless steel needles inserted subcutaneously in the right arm and left leg. […] All data from the primary signals (PAP, Arterial blood pressure (ABP) and ECG) was recorded on a Po-ne-mah (trademark) data acquisition system. […]

Test [3] relates to human patients having various causes of pulmonary hypertension. The experiment in a line: Clinical study: continuous sildenafil infusion in patients with pulmonary hypertension, PVR and SVR determined. The format is in vivo. The following applies: infusion to plasma level 100, 300 and 500 ng/ml, FIG. 1. Here is the method: A number of patients having various causes of pulmonary hypertension were selected. The patients were then assessed in order to establish baseline data, including haemodynamic parameters (by right heart catheterization), blood gas profile (via an arterial line and pulse oximetry). The patients were then tested with 40 ppm of nitric oxide (NO) by inhilation for 5 minutes to assess the reversibility of pulmonary hypertension. Haemodynamic parameters were reassessed within 5 minutes of NO and then further assessed 5-20 minutes later. When the pulmonary arterial pressure levels had returned to baseline (+−5%) inhalation haemodynamic parameters were assessed again and patients were continuously infused with sildenafil at rates to control the plasma level at 100, 300 and 500 nanogrammes per milliliter. A few patients received placebo instead of sildenafil in double-blind fashion. Haemodynamic parameters were recorded throughout infusion. From the data collected during the trial, the PVR and SVR were determined.

The subject of test [4] is hypoxic pulmonary vasoconstriction in anaesthetized dogs. The experiment in a line: Hypoxic pulmonary vasoconstriction in anaesthetised dogs, inhaled administration. The format is in vivo, dog. The following applies: inhaled (nebulised), lowest of doses 30, 80, 230 and 770, hypoxic challenge, FIG. 3. On the procedure: This separate study was performed in analogous fashion to intravenous administration, except that doses were administered into the inspiratory limb of the respiratory circuit using a Penta-sonic Nebuliser (deVilbiss). Each inhaled dose consisted of a timed nebulisation of the solution at a respiration rate of 15 breaths/min finishing 5 min before an hypoxic challenge. Sildenafil and vehicle were administered to a maximum of four dogs per group (i.e. total of eight dogs). At the end of the first vehicle experiment an additional hypoxic challenge was done following administration of an inhaled dose of sildenafil. Doses were made up by dissolving sildenafil in vehicle [sodium acetate buffer (0.038 M)] to the required concentration. Four doses of 30, 80, 230 and 770 microgrammes/weight of dog in kilogrammes were administered.

Turning to `CCCc1nn(C)c2c(=O)[nH]c(-c3cc(S(=O)(=O)N4CCN(C)CC4)ccc3OCC)nc12` [sildenafil, 5-[2-ethoxy-5-(4-methylpiperazin-1-ylsulfonyl)phenyl]-1,6-dihydro-1-methyl-3-propylpyrazolo[4,3-d]pyrimidin-7-one], the “calculated intravenous dose producing half-maximal potentiation (ED50) of nerve-induced pressure rises” value in test [1] is on record as 12 microgrammes/kg. Further, the “effect on SVR compared with effect on PVR” value is “significantly lower than on PVP” in test [2] (FIG. 2) and “substantially lower than the effect on PVR” in test [3]. Further, the “dose producing maximal effect on PVR (reversing hypoxic pulmonary vasoconstriction)” value in test [2] (lowest of doses 1.5, 4.5, 15 and 45, hypoxic challenge) was 1.5 microgrammes/kg. For the same compound, the “effect on PVR” value in test [3] is given as “significant reduction in PVR”. For the same compound, in test [4], the “dose producing maximal effect on PVR” value is listed as 30 microgrammes/kg.

The values are drawn from patent publication US20120095006A1, “TREATMENT OF PULMONARY HYPERTENSION” (Pfizer Inc., priority 1999, published 2012).
